In one assay the test system is ddY mice. Put plainly: Small intestinal transit (Evans Blue mobility), gastrointestinal motility. It is filed as in vivo. As to conditions: ddY mice fasted 18 hours, 30 minutes before test meal. The procedure: The symbol ** in the figure means a statistically significant difference (P<0.01) when comparing ornithine hydrochloride-administered group (3 g/kg) with control group, and the symbol in the figure means a statistically significant difference (P<0.001) when comparing ornithine hydrochloride-administered group (5 g/kg) with control group. Statistical processing was performed by using ANOVA and Fisher's test.
Gastrointestinal motility function was examined through small intestinal transit measurements according to the following testing method.
Male, 5 to 7-week ddY mice were used. […] After 30 minutes, the mice were orally administered with a dyed test meal (Evans Blue 5%, carboxymethyl cellulose 1%). The animals were killed by cervical dislocation after 5 minutes, and immediately cut open in the stomach to remove the whole small intestine. For evaluation of the gastrointestinal motility, the full length of the small intestine, and the length from the pylorus to the farthest point marked by the movement of Evans Blue were measured. Evans Blue mobility was calculated according to the following equation, and used as an index.
Mobility (%)=(the length from the pylorus to the farthest point marked by the movement of Evans Blue/the full length of small intestine)×100

For another assay, the system named is Wistar rats. Put plainly: Blood growth hormone (GH) over time after intraduodenal administration. Type of assay: in vivo. The procedure: Statistical processing was performed by using ANOVA and Fisher's test.
Male, 8 to 9-week Wistar rats were used.

Consider `Cl.NCCC[C@H](N)C(=O)O` [ornithine hydrochloride, L-ornithine hydrochloride], for which the “small intestinal transit compared to the control group” value in the assay with ddY mice (oral 3 g/kg (body weight), P<0.01 (FIG. 3)) was “significantly increased”; in the assay with ddY mice (oral 5 g/kg (body weight), P<0.001 (FIG. 3)), “significantly increased”.

Take D-Lys3-GHRP-6: the “effect of the antagonist alone on blood GH” value with Wistar rats (D-Lys3-GHRP-6 0.8 mg/kg i.v. alone) is listed as “does not show the effect”. Further, the “GH concentration increasing effect of ornithine in presence of ghrelin antagonist” value in the assay on Wistar rats (D-Lys3-GHRP-6 0.8 mg/kg i.v. plus ornithine hydrochloride 5 g/kg, vs ornithine hydrochloride alone, P<0.05 (FIG. 1)) is “inhibited”.

(Values after US20170281582A1, “ENHANCER FOR EATING ACTIVITY AND/OR GASTROINTESTINAL ACTIVITY” (KYOWA HAKKO BIO CO., LTD., priority 2012, published 2017).)
